Data set [1] has as its system outpatients 65 years of age or older with major depressive disorder (MDD). Description: Efficacy outcome measures (HDRS-17, GDS) in double-blind mirtazapine vs paroxetine study, stratified by 5HTTLPR genotype. Particulars: for HAMD-17 or GDS, differences among the three genotype groups: patients stratified by 5HTTLPR genotype (S/S, S/L, L/L), any time point. Format: in vivo, human. From the text: Genet. 8(3):193-195 (1998).

For data set [2] the following is noted: in vivo. From the text: (§1) The study group included 255 outpatients 65 years of age or older with major depressive disorder (MDD) who were randomized to mirtazapine or paroxetine in a double-blind design at 18 U.S. centers. Details of the study design and overall clinical outcomes have been previously described (Schatzberg et al., Am J Geriatr Psychiatry 10(5):541-550 (2002)). […] At baseline all patients scored above the age-adjusted 25th percentile on the Mini Mental State Exam (MMSE), and all had Hamilton Depression Rating Scale (HDRS-17) scores ≧18. Starting doses were 15 mg for mirtazapine and 20 mg for paroxetine. Dosage for both medications was increased to 30 mg after 14 days, with the option to increase to 45 mg of mirtazapine or 40 mg of paroxetine on subsequent visits. Exclusion criteria were clinically significant unstable medical illness, history of treatment resistance, principal psychiatric diagnoses other than MDD, use of other psychotropics, and electroconvulsive therapy (ECT) within the previous 6 months.
(§2) Genomic DNA was extracted from EDTA-treated frozen whole blood by using a Puregene Kit (Gentra Systems, Minneapolis). 5HTTLPR genotypes were determined by PCR and gel electrophoresis as described in Edenberg et al., Psychiatr. Genet. 8(3):193-195 (1998).
(§3) Plasma drug levels were obtained after 4 weeks of treatment as described (Murphy et al., Biol Psychiatry 54:665-673 (2003)). Efficacy outcome measures (determined at baseline and at day 7,14, 21, 28, 42, and 56) included the Hamilton Depression Rating Scale (HDRS-17) (Hamilton et al., Br J Soc Clin Psychol. 6(4):278-296 (1967)) and the Geriatric Depression Scale (GDS) (Yesavage et al., J. Psychiat. Res. 17:37-49 (1983)). Measures related to adverse events included Medication Compliance, Severity of Adverse Events, Time to Discontinuation of Treatment Regimen due to an adverse event, and number of discontinuations due to an adverse event. Statistical methods included analyses of covariance (adjusted for baseline scores), Cochran-Mantel-Haenszel statistics, and Kaplan-Meier survival analyses. […] Analyses were performed for the entire group and also with 20 ethnic minority patients omitted.

Data set [3] deals with outpatients 65 years of age or older with major depressive disorder (MDD). As to conditions: in vivo.
Description: as §1, §2, §3

Molecules are shown by their SMILES.

As to `CN1CCN2c3ncccc3Cc3ccccc3C2C1` (stereo not drawn) [mirtazapine], the “GDS scores, S carriers vs others” value in data set [1] (after adjusting for baseline difference, any subsequent time point) was “not significantly different”. The “HDRS scores, S allele carriers” value in data set [1] (day 14, less depressed, p<0.27) was “lower HDRS scores”. Besides, the “HAMD-17 or GDS, differences among the three genotype groups” value in data set [1] was “no significant differences”. Moreover, the “plasma levels at day 28, differences among the genotype groups” value in data set [2] is listed as “no significant differences”. In data set [3], the “adverse events associated with L/L genotype discontinuations” value was “drowsiness, dizziness, and anxiety”; the “frequency of discontinuation of treatment regimen, L/L genotype” value was “most frequent”; the “relationship between number of L alleles and discontinuation due to adverse events, Caucasian patients” value was “positive linear relationship”; the “relationship between number of L alleles and probability of discontinuation due to adverse events” value was “positive linear relationship”. In addition, the “severity of adverse events, L/L vs S/S genotype” value in data set [3] is recorded as “greater severity”.
Turning to `Fc1ccc([C@@H]2CCNC[C@H]2COc2ccc3c(c2)OCO3)cc1` [paroxetine], the “HDRS, carriers of the S allele vs others” value in data set [1] (FIG. 2B) is “No differences”. Moreover, in data set [1] (days 7 (p=0.003) and 28 (p=0.04), adjusted for baseline body weight, higher = more depressed), the “GDS scores, carriers of the S allele” value is given as “significantly higher scores”. The “HAMD-17 or GDS, differences among the three genotype groups” value in data set [1] is listed as “no significant differences”. Also, the “subjects who discontinued treatment regimen due to adverse events, 5HTTLPR S/S and 5HT2A C/C genotypes” value in data set [3] (human) is 7 of 10. Besides, in data set [3], the “adverse events associated with S/S discontinuations” value is “gastrointestinal complaints, fatigue, agitation, sweating, and dizziness”; the “effects of 5HTTLPR and 5HT2A 102 T/C on discontinuation of treatment regimen due to adverse events” value is reported as “significant effects”; the “frequency of discontinuation of treatment regimen, L/L genotype” value is “fewest”; the “frequency of discontinuation of treatment regimen, S/L genotype” value is given as “intermediate frequency”. In data set [3], the “frequency of discontinuation of treatment regimen, S/S genotype” value is reported as “most frequent”; the “interaction term 5HTTLPR x 5HT2A 102 T/C on discontinuation due to adverse events” value is on record as “not significant”; the “relationship between number of S alleles and discontinuations due to adverse events, Caucasian patients” value is recorded as “positive linear relationship”; the “relationship between number of S alleles and probability of discontinuation due to adverse events” value is “positive linear relationship”. Further, in data set [3], the “risk of discontinuation of the treatment regimen due to adverse events, S/L vs L/L genotype” value is “significantly greater risk”; the “severity of adverse events, S/S vs L/L genotype” value is listed as “greater severity”; the “subjects who discontinued treatment regimen, L/L and T/T genotypes” value is given as “none”.

Source of the values: patent US20050165115A1, “Methods and compositions for predicting compliance with an antidepressant treatment regimen” (priority 2003, published 2005).
